According to publication PMC8242589, “Cardiac Safety of Kinase Inhibitors – Improving Understanding and Prediction of Liabilities in Drug Discovery Using Human Stem Cell-Derived Models” (Frontiers in Cardiovascular Medicine, 2021):

Experiments:
[1] = tested on: hSC-CMs (Cor.4U Cardiomyocytes); assay: ATP assay (CellTiter-Glo Luminescent Cell Viability Assay); assay type: cell-based, human; settings: for viability at 0.2 µM / viability at 2 µM / viability at 20 µM / viability at 200 µM: Homo sapiens, Cardiomyocyte, normalized to time-matched DMSO control
Summary of the method: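 Human stem-cell-derived Cor.4U cardiomyocytes (25,000–30,000/well), cultured 4 days at 37 °C, switched to serum-free BMCC medium 12 h before dosing. Cellular ATP quantified by CellTiter-Glo luminescence and normalized to time-matched DMSO controls; at least three replicates per concentration.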

[2] = tested on: hSC-CMs (Cor.4U Cardiomyocytes); assay: Apoptosis assay (CellEvent Caspase-3/7 Green, IncuCyte ZOOM kinetics over 24 h); assay type: cell-based, human; settings: for activity at 0.2 µM / activity at 2 µM / activity at 20 µM / activity at 200 µM: Homo sapiens, Cardiomyocyte, normalized to time-matched vehicle control
Summary of the method: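 Cor.4U cardiomyocytes were cultured 4 days at 5% CO2 and 37 °C, given a 2 h baseline, then treated with compound for 24 h. Caspase-3/7 green nuclear signal was imaged every 2 h, and total green object area per well (μm^2/well) was normalized to the time-matched vehicle control. At least three replicates were run per concentration.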

[3] = clinical exposure in patients; ref [26] (NVP-BEZ235), [29], [30] (GDC-0941), [34] (CAL-101); cited from earlier work
PI3K p110β = settings: ref [23]–[25] (NVP-BEZ235), [27] (LY 294002), [28] (GDC-0941), [32] (TGX-221), [33] (CAL-101), [35] (CZC24832); read-out: Target IC50 p110β; cited from earlier work
[4] = tested on: hSC-CMs (Cor.4U Cardiomyocytes); assay: CardioExcyte 96 impedance and EFP recording (beating rate, base impedance); assay type: cell-based, human; settings: for activity at 0.2 µM / activity at 2 µM / activity at 20 µM / activity at 200 µM: Homo sapiens, Cardiomyocyte, vs baseline before drug (taken as 100%)
Summary of the method: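 hSC-CM monolayers (Cor.4U), cultured 4 days at 37 °C, 5% CO2, recorded spontaneously beating; impedance sampled at 1 kHz, EFP at 10 kHz. Beating rate taken as reciprocal of inter-spike interval in EFP. Each test concentration expressed as fractional change versus pre-drug baseline (100%).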

## CC[C@H](Nc1ncnc2[nH]cnc12)c1nc2cccc(F)c2c(=O)n1-c1ccccc1 [CAL-101, Idelalisib]
[1]; 2h
  viability at 0.2 µM: 87%
  viability at 2 µM: 87%
  viability at 20 µM: 92%
  viability at 200 µM: 98%
[1]; 24h
  viability at 0.2 µM: 98%
  viability at 2 µM: 92%
  viability at 20 µM: 89%
  viability at 200 µM: 79%
[1]; hSC-CMs, after 24 h of incubation
  Decrease of ATP level: 20–25%
[2]; 2h
  activity at 0.2 µM: 137%
  activity at 2 µM: 118%
  activity at 20 µM: 99%
  activity at 200 µM: 83%
[2]; 24h
  activity at 0.2 µM: 90%
  activity at 2 µM: 83%
  activity at 20 µM: 169%
  activity at 200 µM: 544%
[2]; hSC-CMs, monitored over 24 h
  Apoptosis (caspase-3/7 activation), result in words: induced apoptosis in hSC-CMs with a fast onset
  Time to reach the maximum number of apoptotic cells: ≤ 12 h
[3]
  Cmax free: 700 nM
PI3K p110β
  IC50: 56 nM
[4]; 2h, read-out: BR
  activity at 0.2 µM: 102%
  activity at 2 µM: 96%
  activity at 20 µM: 89%
  activity at 200 µM: 5%
[4]; 2h, read-out: Base Imp
  activity at 0.2 µM: 93%
  activity at 2 µM: 93%
  activity at 20 µM: 96%
  activity at 200 µM: 70%
[4]; 24h, read-out: BR
  activity at 0.2 µM: 99%
  activity at 2 µM: 94%
  activity at 20 µM: 80%
  activity at 200 µM: 39%
[4]; 24h, read-out: Base Imp
  activity at 0.2 µM: 94%
  activity at 2 µM: 99%
  activity at 20 µM: 89%
  activity at 200 µM: 52%
[4]; hSC-CMs, 2 and 24 h
  Effect on cardiomyocyte function in 3D surface plots (beating rate, base impedance, ATP), in words: pronounced effects
  Reduction of base impedance: more than 20%
  Reduction of beating rate: more than 20%
